Experimental data: publication PMC12024213, “Mechanism Insight of Cell Death Signaling by Thymol Derivatives on Trypanosomatidae Protozoan Parasites” (Antibiotics, 2025)
In brackets after ≈: the same amount, converted by molar mass. Where two headings read alike, the source gives them in different places.

Columns and labels:
[1] = system: T. cruzi epimastigotes; test: alamarBlue assay on T. cruzi epimastigotes; type: cell-based, Trypanosoma cruzi; conditions: mean ± SD, triplicates
Method: (§1) In a 96-well plate, a serial dilution of the tested derivatives was performed in liver infusion tryptose medium supplemented with 10% heat inactivated fetal bovine serum. Later, 100 µL of 5 × 10^5 cells/mL of epimastigotes was added to each well. Afterwards, 20 µL of alamarBlue® was added to each well, and the plate was maintained at 26 °C for 72 h.
(§2) Cytotoxicity effect of the tested derivatives was conducted using macrophages of the murine cell line J774.A1 (American Type Culture Collection #TIB-67, city, country), as previously described. The cells were maintained in DMEM at 37 °C in a 5% CO2 humidified incubator. All the plates containing alamarBlue® were analyzed using a plate reader EnSpire Multimode Plate Reader® at excitation and emission wavelengths of 570 and 585 nm, respectively (PerkinElmer, ThermoFisher Scientific, Madrid, Spain). The IC50 (concentrations able to inhibit 50% of parasites), IC90 (concentrations able to inhibit 90% of parasites), and CC50 (concentration able to inhibit 50% of murine macrophages) values were determined for each compound by nonlinear regression using GraphPad software.

[2] = system: L. amazonensis promastigotes; test: alamarBlue assay on L. amazonensis promastigotes; type: cell-based, Leishmania amazonensis; conditions: mean ± SD, triplicates
Method: (§3) The assay was conducted using the alamarBlue® method as previously described. Briefly, promastigotes of L. amazonensis were grown at 26 °C in Schneider’s medium (US Biological, Life sciences) and supplemented with 10% heat-inactivated fetal bovine serum and 0.04% of sodium bicarbonate. In a 96-well microtiter plates (Corning™, Corning, NY, USA) a serial dilutions of thymol derivatives were first prepared, and later, 10^6 parasites/mL were added into each well. Subsequently, 10% of alamarBlue® was added to the entire plate. The plates were incubated for 72 h at 26 °C.
as §2

[3] = system: promastigote stage of L. infantum and L. chagasi; design: method as in PMID 25281268; conditions: cited from earlier work
[4] = system: amastigote stage of L. infantum and L. chagasi; design: method as in PMID 25281268; conditions: cited from earlier work
[5] = alamarBlue assay on T. cruzi epimastigotes; type: cell-based, Trypanosoma cruzi; conditions: mouse; CC50 J774.A1 / IC50 T. cruzi epimastigotes; read-out: Selectivity Trypanosoma SI (CC50/IC50)
Method: as §1, §2

[6] = alamarBlue assay on L. amazonensis promastigotes; type: cell-based, Leishmania amazonensis; conditions: mouse; CC50 J774.A1 / IC50 L. amazonensis promastigotes; read-out: Selectivity Leishmania SI (CC50/IC50)
Method: as §3, §2

[7] = Cytotoxicity assay on murine macrophages (alamarBlue); type: cell-based; conditions: mouse, mean ± SD
Method: as §2

[8] = system: L. infantum; design: method as in PMID 31151304; conditions: cited from earlier work
[9] = system: promastigote stage of L. tropica; design: method as in PMID 37595813; conditions: cited from earlier work
[10] = system: L. chagasi; design: method as in PMID 20428679; conditions: cited from earlier work
[11] = system: L. amazonensis; design: method as in PMID 28509873; conditions: cited from earlier work
[12] = system: promastigote stage of L. major; design: method as in PMID 37595813; conditions: cited from earlier work
[13] = system: intramacrophage L. amazonensis; test: Intramacrophagic stage assay, L. amazonensis in J774.A1 macrophages; type: cell-based, Leishmania amazonensis; conditions: Leishmania amazonensis; intramacrophage stage in J774.A1, 24 h treatment; mean ± SD; read-out: L. amazonensis Intracellular IC50
Method: (§4) Briefly, in a 96-well plate, macrophages from the J774.A1 cell line were seeded at a final concentration of 2 × 10^5 cells/mL in Dulbecco’s Modified Eagle Medium (DMEM) and maintained at 37 °C in a 5% CO2 atmosphere until fully adhesion. […] After infection, plates were washed using DMEM to eliminate external parasites. Subsequently, infected macrophages were treated with different concentrations of active compounds for 24 h. Later, macrophages were lysed using 30 μL of medium, Schneider for Leishmania, and in liver infusion tryptose for Trypanosoma, containing 0.05% of sodium dodecyl sulfate (SDS) for 30 s under agitation. Afterwards, 170 μL of the appropriated medium was derivatives added to each well to give a final volume of 200 μL. Subsequently, 10% of alamarBlue® was added into each well and the plate was incubated at 26 °C for 72 h. Cytotoxicity effect of the tested derivatives was conducted using macrophages of the murine cell line J774.A1 (American Type Culture Collection #TIB-67, city, country), as previously described. The cells were maintained in DMEM at 37 °C in a 5% CO2 humidified incubator.

[14] = as above; type: cell-based, Leishmania amazonensis; conditions: mouse; CC50 J774.A1 / IC50 intracellular L. amazonensis; read-out: Selectivity Leishmania SI (CC50/IC50)
Method: as §4

[15] = Intramacrophagic stage assay, T. cruzi in J774.A1 macrophages; type: cell-based, Trypanosoma cruzi; conditions: mouse; CC50 J774.A1 / IC50 intracellular T. cruzi; read-out: Selectivity Trypanosoma SI (CC50/IC50)
Method: (§5) Briefly, in a 96-well plate, macrophages from the J774.A1 cell line were seeded at a final concentration of 2 × 10^5 cells/mL in Dulbecco’s Modified Eagle Medium (DMEM) and maintained at 37 °C in a 5% CO2 atmosphere until fully adhesion. Cells were infected either with L. amazonensis promastigotes (at a ratio of 1:10) or epimastigotes of T. cruzi (at a ratio of 1:7) (macrophage: parasite) and incubated at 37 °C in 5% CO2 for 24 h for Leishmania and 48 h for Trypanosoma. After infection, plates were washed using DMEM to eliminate external parasites. Subsequently, infected macrophages were treated with different concentrations of active compounds for 24 h. Later, macrophages were lysed using 30 μL of medium, Schneider for Leishmania, and in liver infusion tryptose for Trypanosoma, containing 0.05% of sodium dodecyl sulfate (SDS) for 30 s under agitation. Afterwards, 170 μL of the appropriated medium was derivatives added to each well to give a final volume of 200 μL. Subsequently, 10% of alamarBlue® was added into each well and the plate was incubated at 26 °C for 72 h.
as §2

[16] = system: intramacrophage T. cruzi; test: as above; type: cell-based, Trypanosoma cruzi; conditions: Trypanosoma cruzi; intramacrophage stage in J774.A1, 24 h treatment; mean ± SD; read-out: T. cruzi Intracellular IC50
Method: as §5, §2

[17] = Trypanosoma cruzi, 72 h, epimastigotes, alamarBlue, 72 h at 26 °C, read-out: T. cruzi Epimastigote IC50
[18] = Leishmania amazonensis, 72 h, promastigotes, alamarBlue, 72 h at 26 °C, read-out: L. amazonensis Promastigote IC50
[19] = epimastigotes, alamarBlue, 72 h at 26 °C, read-out: T. cruzi Epimastigote IC50

Structure (SMILES) | IC50 [1, 17] | IC50 [2, 18] | selectivity ratio [5] | selectivity ratio [6] | CC50 ([7]; J774.A1 macrophage cell line) | other results
CC(=O)Oc1cc(C)ccc1C(C)C [Derivative 2, thymyl acetate] | > 350 µM | > 350 µM | – | – | – | EC50 against promastigote stage [3]: 9.07 µg/mL; EC50 against amastigote stage [4]: 10.95 µg/mL
Cc1ccc(C(C)C)c(OC(=O)CCl)c1 [Derivative 3, thymyl chloroacetate] | – | – | > 6.1 | > 3.8 | – | IC50 ([1]; Trypanosoma cruzi, epimastigotes, alamarBlue, 72 h at 26 °C, read-out: T. cruzi Epimastigote IC50): 49.5 ± 3.2 µM; IC50 ([2]; Leishmania amazonensis, promastigotes, alamarBlue, 72 h at 26 °C, read-out: L. amazonensis Promastigote IC50): 78.8 ± 15.9 µM; CC50 ([7]; murine macrophages J774.A1): > 300 µM
CCCC(=O)Oc1cc(C)ccc1C(C)C [Derivative 5, thymyl butyrate] | 150 to 250 µM | 150 to 250 µM | > 1.4 | > 1.4 | > 300 µM | IC50 [1, 19]: 211 ± 7.3 µM; IC50 ([2]; promastigotes, alamarBlue, 72 h at 26 °C, read-out: L. amazonensis Promastigote IC50): 216 ± 7.5 µM
Cc1ccc(C(C)C)c(OC(=O)CCC(=O)O)c1 [Derivative 6, thymyl hemisuccinate] | > 350 µM | > 350 µM | – | – | – | –
Cc1ccc(C(C)C)c(O)c1 [Compound 1, thymol] | 206 ± 2.8 µM | 318 ± 21.4 µM | > 1.5 | > 0.9 | > 300 µM | IC50 against L. infantum [8]: 7.2 µg/mL (≈ 47.9 µM); activity against promastigote stage of L. tropica [9]: inactive; IC50 against L. chagasi [10]: 28.0 µg/mL (≈ 186 µM); IC50 against L. amazonensis [11]: 26.8 µg/mL (≈ 178 µM); activity against promastigote stage of L. major [12]: inactive
Cc1ccc(C(C)C)c(OC(=O)N(C)C)c1 [Derivative 12, thymyl N,N-dimethyl carbamate] | – | – | > 1.9 | > 1.3 | – | IC50 ([1]; Trypanosoma cruzi, 72 h, read-out: T. cruzi Epimastigote IC50, epimastigotes, alamarBlue, 72 h at 26 °C): 150 to 250 µM; IC50 ([1]; read-out: T. cruzi Epimastigote IC50, epimastigotes, alamarBlue, 72 h at 26 °C): 158 ± 2.9 µM; IC50 ([2]; Leishmania amazonensis, 72 h, read-out: L. amazonensis Promastigote IC50, promastigotes, alamarBlue, 72 h at 26 °C): 150 to 250 µM; IC50 ([2]; read-out: L. amazonensis Promastigote IC50, promastigotes, alamarBlue, 72 h at 26 °C): 229 ± 21.4 µM; CC50 ([7]; murine macrophages J774.A1): > 300 µM
Cc1ccc(C(C)C)c(OC(=O)c2ccccc2)c1 [Derivative 7, thymyl benzoate] | 66 ± 1.7 µM | 56 ± 5.6 µM | > 4.5 | > 5.4 | > 300 µM | EC50 against promastigote stage [3]: 8.67 µg/mL (≈ 34.1 µM); EC50 against amastigote stage [4]: 15.09 µg/mL (≈ 59.3 µM)
Cc1ccc(C(C)C)c(OC(=O)Oc2ccc([N+](=O)[O-])cc2)c1 [Derivative 11, thymyl-4-nitrophenylcarbonate] | 66.9 ± 3.8 µM | 56.9 ± 7.2 µM | > 4.5 | > 5.2 | > 300 µM | –
Cc1ccc(C(C)C)c(OCC(=O)OC(=O)CCl)c1 [Derivative 4, 2-thymyl-2′-(chloro)-acetic anhydride] | 124 ± 6 µM | 148 ± 10 µM | 0.9 | 0.8 | 120.9 ± 0.4 µM | –
Cc1ccc(C(C)C)c(OC(=O)c2ccc([N+](=O)[O-])cc2)c1 [Derivative 8, thymyl-4-nitrobenzoate] | 50 to 150 µM | 76.4 ± 6.2 µM | > 6.8 | > 3.9 | > 300 µM | IC50 [1, 19]: 44.4 ± 2.5 µM
CCCCCCCCCCCCCCCCOP(=O)([O-])OCC[N+](C)(C)C [M, Miltefosine, reference compound] | – | 6.5 ± 0.3 µM | – | 11.1 | 72.2 ± 8.9 µM | IC50 [13]: 3.1 ± 0.3 µM; selectivity ratio [14]: 23.3
O=C(Cn1ccnc1[N+](=O)[O-])NCc1ccccc1 [B, Benznidazole, reference compound] | 6.9 ± 0.8 µM | – | 58 | – | 399.9 ± 1.4 µM | selectivity ratio [15]: 148; IC50 [16]: 2.7 ± 0.4 µM
